# PubChem BioAssay (NCI)
#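 Dose response: 5 concentrations. Exposure: 48 h. Format: 96-well plates. Endpoint: linear interpolation; highest concentration if not reached. GI50 is the concentration that inhibits growth by half. TGI is the concentration that stops growth completely.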
# Assays:
# Assay in all cases: NCI anticancer screen, dose series, 48 h
# 786-0 renal = tested on: 786-0 renal
# A498 renal = tested on: A498 renal
# A549 NSCLC = tested on: A549 NSCLC
# ACHN renal = tested on: ACHN renal
# BT-549 breast = tested on: BT-549 breast
# CAKI-1 renal = tested on: CAKI-1 renal
# COLO 205 colon = tested on: COLO 205 colon
# DU-145 prostate = tested on: DU-145 prostate
# EKVX NSCLC = tested on: EKVX NSCLC
# HCC-2998 colon = tested on: HCC-2998 colon
# HCT-116 colon = tested on: HCT-116 colon
# HCT-15 colon = tested on: HCT-15 colon
# HL-60(TB) leukemia = tested on: HL-60(TB) leukemia
# HOP-62 NSCLC = tested on: HOP-62 NSCLC
# HOP-92 NSCLC = tested on: HOP-92 NSCLC
# HS 578T breast = tested on: HS 578T breast
# HT29 colon = tested on: HT29 colon
# IGROV1 ovarian = tested on: IGROV1 ovarian
# K-562 leukemia = tested on: K-562 leukemia
# KM12 colon = tested on: KM12 colon
# LOX IMVI melanoma = tested on: LOX IMVI melanoma
# M14 melanoma = tested on: M14 melanoma
# MALME-3M melanoma = tested on: MALME-3M melanoma
# MCF7 breast = tested on: MCF7 breast
# MDA-MB-435 = tested on: MDA-MB-435
# MDA-MB-468 breast = tested on: MDA-MB-468 breast
# MOLT-4 leukemia = tested on: MOLT-4 leukemia
# NCI-H226 lung = tested on: NCI-H226 lung
# NCI-H23 lung = tested on: NCI-H23 lung
# NCI-H460 lung = tested on: NCI-H460 lung
# NCI-H522 lung = tested on: NCI-H522 lung
# NCI/ADR-RES ovarian = tested on: NCI/ADR-RES ovarian
# OVCAR-3 ovarian = tested on: OVCAR-3 ovarian
# OVCAR-4 ovarian = tested on: OVCAR-4 ovarian
# OVCAR-5 ovarian = tested on: OVCAR-5 ovarian
# OVCAR-8 ovarian = tested on: OVCAR-8 ovarian
# PC-3 prostate = tested on: PC-3 prostate
# RPMI-8226 leukemia = tested on: RPMI-8226 leukemia
# RXF 393 renal = tested on: RXF 393 renal
# SF-268 CNS = tested on: SF-268 CNS
# SF-295 CNS = tested on: SF-295 CNS
# SF-539 CNS = tested on: SF-539 CNS
# SK-MEL-2 melanoma = tested on: SK-MEL-2 melanoma
# SK-MEL-28 melanoma = tested on: SK-MEL-28 melanoma
# SK-MEL-5 melanoma = tested on: SK-MEL-5 melanoma
# SK-OV-3 ovarian = tested on: SK-OV-3 ovarian
# SN12C renal = tested on: SN12C renal
# SNB-19 CNS = tested on: SNB-19 CNS
# SNB-75 CNS = tested on: SNB-75 CNS
# SW-620 colon = tested on: SW-620 colon
# T-47D breast = tested on: T-47D breast
# TK-10 renal = tested on: TK-10 renal
# U251 CNS = tested on: U251 CNS
# UACC-257 melanoma = tested on: UACC-257 melanoma
# UACC-62 melanoma = tested on: UACC-62 melanoma
structure (smiles),measurement,setting,value
O=C(N/N=C/c1ccc(-c2cccc([N+](=O)[O-])c2)o1)c1[nH]c2ccc(Br)cc2c1-c1ccccc1,GI50,786-0 renal,2.75 µM
same,TGI,786-0 renal,13.3 µM
same,GI50,A498 renal,> 100 µM
same,TGI,A498 renal,> 100 µM
same,GI50,A549 NSCLC,3.66 µM
same,TGI,A549 NSCLC,> 100 µM
same,GI50,ACHN renal,4.76 µM
same,TGI,ACHN renal,> 100 µM
same,GI50,BT-549 breast,2.16 µM
same,TGI,BT-549 breast,6.28 µM
same,GI50,CAKI-1 renal,30.9 µM
same,TGI,CAKI-1 renal,> 100 µM
same,GI50,COLO 205 colon,2.75 µM
same,TGI,COLO 205 colon,7.49 µM
same,GI50,DU-145 prostate,4.2 µM
same,TGI,DU-145 prostate,> 100 µM
same,GI50,EKVX NSCLC,5.74 µM
same,TGI,EKVX NSCLC,> 100 µM
same,GI50,HCC-2998 colon,4.63 µM
same,TGI,HCC-2998 colon,> 100 µM
same,GI50,HCT-116 colon,3.04 µM
same,TGI,HCT-116 colon,10.4 µM
same,GI50,HCT-15 colon,3.59 µM
same,TGI,HCT-15 colon,> 100 µM
same,GI50,HL-60(TB) leukemia,1.94 µM
same,TGI,HL-60(TB) leukemia,5.32 µM
same,GI50,HOP-62 NSCLC,3.49 µM
same,TGI,HOP-62 NSCLC,> 100 µM
same,GI50,HOP-92 NSCLC,46.1 µM
same,TGI,HOP-92 NSCLC,> 100 µM
same,GI50,HS 578T breast,4.26 µM
same,TGI,HS 578T breast,> 100 µM
same,GI50,HT29 colon,2.58 µM
same,TGI,HT29 colon,6.97 µM
same,GI50,IGROV1 ovarian,4.33 µM
same,TGI,IGROV1 ovarian,> 100 µM
same,GI50,K-562 leukemia,3.28 µM
same,TGI,K-562 leukemia,> 100 µM
same,GI50,KM12 colon,3.75 µM
same,TGI,KM12 colon,> 100 µM
same,GI50,LOX IMVI melanoma,3.71 µM
same,TGI,LOX IMVI melanoma,> 100 µM
same,GI50,M14 melanoma,3.43 µM
same,TGI,M14 melanoma,> 100 µM
same,GI50,MALME-3M melanoma,3.77 µM
same,TGI,MALME-3M melanoma,> 100 µM
same,GI50,MCF7 breast,3.56 µM
same,TGI,MCF7 breast,> 100 µM
same,GI50,MDA-MB-435,3.2 µM
same,TGI,MDA-MB-435,> 100 µM
same,GI50,MDA-MB-468 breast,2.28 µM
same,TGI,MDA-MB-468 breast,6 µM
same,GI50,MOLT-4 leukemia,3.45 µM
same,TGI,MOLT-4 leukemia,> 100 µM
same,GI50,NCI-H226 lung,23.5 µM
same,TGI,NCI-H226 lung,> 100 µM
same,GI50,NCI-H23 lung,4.87 µM
same,TGI,NCI-H23 lung,> 100 µM
same,GI50,NCI-H460 lung,3.49 µM
same,TGI,NCI-H460 lung,> 100 µM
same,GI50,NCI-H522 lung,1.73 µM
same,TGI,NCI-H522 lung,3.98 µM
same,GI50,NCI/ADR-RES ovarian,2.53 µM
same,TGI,NCI/ADR-RES ovarian,6.49 µM
same,GI50,OVCAR-3 ovarian,3.47 µM
same,TGI,OVCAR-3 ovarian,> 100 µM
same,GI50,OVCAR-4 ovarian,> 100 µM
same,TGI,OVCAR-4 ovarian,> 100 µM
same,GI50,OVCAR-5 ovarian,3.84 µM
same,TGI,OVCAR-5 ovarian,> 100 µM
same,GI50,OVCAR-8 ovarian,2.44 µM
same,TGI,OVCAR-8 ovarian,5.5 µM
same,GI50,PC-3 prostate,4.28 µM
same,TGI,PC-3 prostate,> 100 µM
same,GI50,RPMI-8226 leukemia,3.31 µM
same,TGI,RPMI-8226 leukemia,> 100 µM
same,GI50,RXF 393 renal,2.65 µM
same,TGI,RXF 393 renal,7.45 µM
same,GI50,SF-268 CNS,5.55 µM
same,TGI,SF-268 CNS,> 100 µM
same,GI50,SF-295 CNS,3.17 µM
same,TGI,SF-295 CNS,> 100 µM
same,GI50,SF-539 CNS,2.34 µM
same,TGI,SF-539 CNS,5.81 µM
same,GI50,SK-MEL-2 melanoma,2.68 µM
same,TGI,SK-MEL-2 melanoma,8.93 µM
same,GI50,SK-MEL-28 melanoma,6.75 µM
same,TGI,SK-MEL-28 melanoma,> 100 µM
same,GI50,SK-MEL-5 melanoma,2.22 µM
same,TGI,SK-MEL-5 melanoma,5.34 µM
same,GI50,SK-OV-3 ovarian,3.61 µM
same,TGI,SK-OV-3 ovarian,> 100 µM
same,GI50,SN12C renal,3.99 µM
same,TGI,SN12C renal,> 100 µM
same,GI50,SNB-19 CNS,3.48 µM
same,TGI,SNB-19 CNS,> 100 µM
same,GI50,SNB-75 CNS,4.56 µM
same,TGI,SNB-75 CNS,> 100 µM
same,GI50,SW-620 colon,4.5 µM
same,TGI,SW-620 colon,> 100 µM
same,GI50,T-47D breast,> 100 µM
same,TGI,T-47D breast,> 100 µM
same,GI50,TK-10 renal,> 100 µM
same,TGI,TK-10 renal,> 100 µM
same,GI50,U251 CNS,3.34 µM
same,TGI,U251 CNS,> 100 µM
same,GI50,UACC-257 melanoma,5.79 µM
same,TGI,UACC-257 melanoma,> 100 µM
same,GI50,UACC-62 melanoma,4.46 µM
same,TGI,UACC-62 melanoma,> 100 µM
